Consider 13 compounds from patent publication US12195452B2, “N-(4-(oxazol-5-yl)phenyl) chromane-3-carboxamide derivatives and related compounds as stimulators of the production of retinal precursor cells for the treatment of neuroretinal diseases” (ENDOGENA THERAPEUTICS, INC., priority 2018, dated 2025).

The structures appear in SMILES notation.

In this assay the test system is retinal precursor cells. The assay can be described thus: Sphere passaging and high-throughput drug screening: proliferation of retinal precursor cells from the ciliary epithelium, cell number after one week. The conditions noted are these: control experiment (absence of a compound) = 100; cells grown for one week. The format is cell-based, mammalian. As to the method: Kynurenic Acid (0.2 mg/mL), trypsin (1.33 mg/mL), and hyaluronidase (0.67 mg/mL) were weighed out and dissolved in high magnesium/low calcium artificial cerebral spinal fluid (aCSF) at 37° C. Fibroblast growth factor 2 (FGF2; 10 ng/mL) and heparin (2 μg/mL) were added to 100 mL of serum-free media (SFM). Ovomucoid trypsin inhibitor (1 mg/mL) was dissolved in warm SFM and sterile filtered ([…]).
A dissecting microscope, cold light source, and sterile surgical instruments were set up inside of a sterile biological safety cabinet (BSC). Mammalian eyes were enucleated and placed in a petri dish containing cold, sterile aCSF. Under the dissecting microscope, hair, connective tissue, and the dorsal and ventral oblique muscles were cleared from the scleral/corneal border with two sets of forceps. Next, curved or angled micro-dissecting scissors were used to cleave any remaining extraocular muscle tissue, the optic nerve, and cut the eyeball into symmetrical halves; beginning and finishing the cut from the hole left by the optic nerve. Using two sets of forceps to grasp the cornea, the two eye halves were peeled apart. The lens, optic nerve, and vitreous were separated from the eye shells and the eye shells were transferred into a new petri dish (also containing cold, sterile aCSF). To isolate the ciliary epithelium (CE), eye shells were oriented with the cornea on the right and retinal pigmented epithelium (RPE) on the left. A pair of straight forceps were used to pin down the eye shell on the RPE side while a scalpel blade was inserted between the CE and the iris, using pressure to slice the iris/cornea side off from the rest of the shell. Next, the scalpel was run along the border between the CE and the RPE to obtain the CE isolated as a thin strip of tissue. The CE strips were then transferred to a 35 mm dish containing 2 mL of dispase solution (Sigma; T1005) and incubated for 10 minutes at 37° C. Next, the strips were transferred from dispase into a 35 mm dish containing 2 mL of sterile filtered kynurenic acid, trypsin and hyaluronidase solution and incubated at 37° C. for 10 minutes. After incubation, the dish was returned to the dissecting scope, and the CE strips were pinned down with straight, non-serrated forceps, while non-serrated curved forceps were used to scrape the CE off from the underlying sclera. The bare scleral strips were then discarded, such that only the CE cells remained in the enzyme solution. Using a fire-polished, cotton-plugged glass pipette, the cells and enzyme solution were transferred to a 15 mL tube and triturated approximately 45 times to break apart the tissue. The 15 mL tube/cell suspension was centrifuged for 5 minutes at 1500 rpm. The supernatant was gently aspirated from the resulting pellet using a fire-polished, cotton-plugged glass pipette and 2 mL of trypsin inhibitor solution was added to the pellet. Using a small borehole, fire-polished, cotton-plugged glass pipette, the sample was triturated approximately 45 times until it was a single-cell suspension. The 15 mL tube/cell suspension was centrifuged for 5 minutes at 1500 rpm. The supernatant was gently aspirated from the resulting pellet and 1-2 mL of SFM with FGF2 and heparin (plating media) was added. The cells and media were mixed to ensure a uniform cell suspension and a 10 uL sample was taken and cell density was determined. The cells were then seeded and cultured at 10c/μL in culture-treated plates or flasks. After one week, roughly 1 in 500 cells proliferated to form free-floating, clonal spheres greater than 80 μm in diameter.
Human-derived spheres were passaged using the kynurenic acid, trypsin, hyaluronidase enzyme solution with the addition of collagenase I (0.5 mg/mL), collagenase II (0.5 mg/mL) and elastase (0.1 mg/mL). Mouse-derived spheres were passaged using hyaluronidase (0.67 mg/mL), collagenase I (0.5 mg/mL), and collagenase II (0.5 mg/mL) dissolved in Accustase solution (Sigma; SCR005). […]

For `COc1ccc2c(c1)OC(C(=O)Nc1ccc(-c3cnco3)c(OC)c1)CO2` (racemic) [Compound 20, 7-methoxy-N-(3-methoxy-4-(oxazol-5-yl)phenyl)-2,3-dihydrobenzo[b][1,4]dioxine-2-carboxamide], the “Cell proliferation within one week [%]” value was 113%. As to `COc1cc(NC(=O)C2COc3ccccc3O2)ccc1-c1ccncc1` (racemic) [Compound 19, N-(3-methoxy-4-(pyridin-4-yl)phenyl)-2,3-dihydrobenzo[b][1,4]dioxine-2-carboxamide], the “Cell proliferation within one week [%]” value is 110%. As to `Cc1cc(-c2cnco2)ccc1NC(=O)C1COc2ccccc2C1` (racemic) [Compound 23, N-(2-methyl-4-(oxazol-5-yl)phenyl) chroman-3-carboxamide], the “Cell proliferation within one week [%]” value was 116%. As for `O=C(Nc1ccc(-c2cnco2)c(Cl)c1)C1COc2ccc(F)cc2C1` (stereo not shown) [Compound 42, N-(3-chloro-4-(oxazol-5-yl)phenyl)-6-fluorochromane-3-carboxamide], the “Cell proliferation within one week [%]” value is recorded as 124%. As for `O=C(Nc1ccc(-c2cnco2)c(Cl)c1)C1Cc2ccccc2C1` (racemic) [Compound 36, N-(3-chloro-4-(oxazol-5-yl)phenyl)-2,3-dihydro-1H-indene-2-carboxamide], the “Cell proliferation within one week [%]” value amounted to 124%. Turning to `O=C(Nc1ccc(-c2cnco2)c(Cl)c1)C1COc2ccccc2O1` (racemic) [Compound 41, N-(3-chloro-4-(oxazol-5-yl)phenyl)-2,3-dihydrobenzo[b][1,4]dioxine-2-carboxamide], the “Cell proliferation within one week [%]” value was 114%. Regarding `O=C(Nc1ccc(-c2cnco2)c(Cl)c1)C1COc2ccccc21` (racemic) [Compound 35, N-(3-chloro-4-(oxazol-5-yl)phenyl)-2,3-dihydrobenzofuran-3-carboxamide], the “Cell proliferation within one week [%]” value is reported as 125%. As for `O=C(Nc1ccc(-c2cnco2)c(Cl)c1)C1COc2ccccc2O1` (racemic) [Compound 6, N-(3-chloro-4-(oxazol-5-yl)phenyl)-2,3-dihydrobenzo[b][1,4]dioxine-2-carboxamide], the “Cell proliferation within one week [%]” value was found to be 120%.

In the case of `O=C(Nc1ccc(-c2cnco2)c(Cl)c1)C1Cc2ccccc2O1` (racemic) [Compound 31, N-(3-chloro-4-(oxazol-5-yl)phenyl)-2,3-dihydrobenzofuran-2-carboxamide], the “Cell proliferation within one week [%]” value came out at 137%. In the case of `COc1ccc2c(c1)CC(C(=O)Nc1ccc(-c3cnco3)c(F)c1)CO2` (racemic) [Compound 10, N-(3-fluoro-4-(oxazol-5-yl)phenyl)-6-methoxychromane-3-carboxamide], the “Cell proliferation within one week [%]” value is reported as 121%. Turning to `Cc1cc(NC(=O)C2COc3ccccc3C2)ccc1-c1cnco1` (stereo not shown) [Compound 25, N-(3-methyl-4-(oxazol-5-yl)phenyl)chromane-3-carboxamide], the “Cell proliferation within one week [%]” value is 120%. Then `O=C(Nc1ccc(-c2cnco2)c(Cl)c1)C1COc2c(F)cc(F)cc2C1` (racemic) [Compound 39, N-(3-chloro-4-(oxazol-5-yl)phenyl)-6,8-difluorochromane-3-carboxamide], with 132%; and `COc1ccc2c(c1)CC(C(=O)Nc1ccc(-c3cnco3)c(Cl)c1)CO2` (racemic) [Compound 3, N-(3-chloro-4-(oxazol-5-yl)phenyl)-6-methoxychromane-3-carboxamide], with 138%.
